Target: T1, SIRT1 (Homo sapiens, UniProt Q96EB6)
T1 sequence (Q96EB6 1-747): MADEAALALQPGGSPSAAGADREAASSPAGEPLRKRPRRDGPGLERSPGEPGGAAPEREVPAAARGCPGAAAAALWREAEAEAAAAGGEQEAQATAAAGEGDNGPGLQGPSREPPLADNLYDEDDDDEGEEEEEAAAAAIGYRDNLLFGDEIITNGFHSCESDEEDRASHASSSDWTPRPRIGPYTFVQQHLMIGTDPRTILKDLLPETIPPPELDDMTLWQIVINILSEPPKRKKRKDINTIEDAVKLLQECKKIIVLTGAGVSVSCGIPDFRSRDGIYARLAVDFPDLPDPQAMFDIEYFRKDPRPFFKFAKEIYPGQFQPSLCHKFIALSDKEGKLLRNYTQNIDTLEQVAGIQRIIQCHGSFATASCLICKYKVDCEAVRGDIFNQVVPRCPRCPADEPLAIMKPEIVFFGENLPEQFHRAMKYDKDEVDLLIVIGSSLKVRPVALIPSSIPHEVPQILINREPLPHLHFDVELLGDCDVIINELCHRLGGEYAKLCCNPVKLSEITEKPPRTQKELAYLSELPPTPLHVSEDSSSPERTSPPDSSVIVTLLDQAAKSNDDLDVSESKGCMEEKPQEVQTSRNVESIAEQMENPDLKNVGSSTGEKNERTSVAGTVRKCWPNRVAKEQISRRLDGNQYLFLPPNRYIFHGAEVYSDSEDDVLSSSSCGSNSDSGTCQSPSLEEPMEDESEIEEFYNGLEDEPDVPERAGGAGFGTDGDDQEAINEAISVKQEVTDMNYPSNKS
Test: Trp mass spectrometry assay of SIRT1 activity (EC1.5, percent maximum activation)
Format: biochemical
Conditions: Trp mass spectrometry assay; for TRP Activity (EC1.5): EC1.5 = concentration giving 150% activation of SIRT1
Method in brief: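 MS readout: O-acetyl-ADP-ribose (or deacetylated peptide) formed by His-tagged SIRT1 (BL21(DE3)-expressed) on 5TMR-Trp p53-based peptide, 25 min, formic acid stop. EC1.5 = concentration raising activity 50% over no-compound control; % max activation vs control = 100%.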

[1] = percent maximum activation of SIRT1
[2] = 0.5 μM peptide substrate, 120 μM βNAD+, 10 nM SIRT1, 25 minutes at 25° C.

Compound	TRP Activity (EC1.5)	TRP MAX RESP (percent maximum fold activation) [1]	TRP Activity (EC1.5, concentration of test compound that results in 150% activation of SIRT1) [2]	TRP MAX RESP (percent maximum fold activation) [2]
CCn1cc(-c2nc3c(cc2Cl)N2CC[C@@H](C2)N3C(=O)Nc2ccnc(OC[C@@H](O)CO)c2)cn1 [Example 199, (4S)-8-chloro-N-(2-((S)-2,3-dihydroxypropoxy)pyridin-4-yl)-7-(1-ethyl-1H-pyrazol-4-yl)-3,4-dihydro-1,4-methanopyrido[2,3-b][1,4]diazepine-5(2H)-carboxamide]	B (EC1.5 1-25 μM)	A (Fold activation ≧150%)		
Cl.O=C(Nc1ccnc(OC[C@@H](O)CO)n1)N1c2nc(-c3cccc(C(F)(F)F)c3)c(Cl)cc2N2CC[C@H]1C2 [Example 28, (4S)-8-chloro-N-(2-((S)-2,3-dihydroxypropoxy)pyrimidin-4-yl)-7-(3-(trifluoromethyl)phenyl)-3,4-dihydro-1,4-methanopyrido[2,3-b][1,4]diazepine-5(2H)-carboxamide, Hydrochloride]	A (EC1.5<1 μM)	A (Fold activation ≧150%)		
COC(=O)c1cc(-c2ccc3c(n2)N(C(=O)Nc2cnccn2)[C@H]2CCN3C2)ccn1 [Example 215, methyl 4-((4S)-5-(pyrazin-2-ylcarbamoyl)-2,3,4,5-tetrahydro-1,4-methanopyrido[2,3-b][1,4]diazepin-7-yl)picolinate]			B (EC1.5 1-25 μM)	A (Fold activation ≧150%)
Cc1cc(-c2ccc3c(n2)N(C(=O)Nc2cccc4nccnc24)[C@H]2CCN3C2)ccn1 [Example 131, (4S)-7-(2-methylpyridin-4-yl)-N-(quinoxalin-5-yl)-3,4-dihydro-1,4-methanopyrido[2,3-b][1,4]diazepine-5(2H)-carboxamide]	B (EC1.5 1-25 μM)	A (Fold activation ≧150%)		
O=C(Nc1ccnc(OC[C@@H](O)CO)c1)N1c2nc(-c3cnn(C4CC4)c3)c(Cl)cc2N2CC[C@H]1C2 [Example 102, (4S)-8-chloro-7-(1-cyclopropyl-1H-pyrazol-4-yl)-N-(2-((S)-2,3-dihydroxypropoxy)pyridin-4-yl)-3,4-dihydro-1,4-methanopyrido[2,3-b][1,4]diazepine-5(2H)-carboxamide]	B (EC1.5 1-25 μM)	A (Fold activation ≧150%)		
Cc1cc(-c2nc3c(cc2Cl)N2CC[C@@H](C2)N3C(=O)Nc2cccc(OC[C@@H](O)CO)n2)ccn1 [Example 93, (4S)-8-chloro-N-(6-((S)-2,3-dihydroxypropoxy)pyridin-2-yl)-7-(2-methylpyridin-4-yl)-3,4-dihydro-1,4-methanopyrido[2,3-b][1,4]diazepine-5(2H)-carboxamide]	B (EC1.5 1-25 μM)	A (Fold activation ≧150%)		
O=C(Nc1ccccn1)N1c2nc(N3CCC[C@H]3C(F)(F)F)ccc2N2CC[C@H]1C2 [Example 120, (4S)-N-(pyridin-2-yl)-7-((S)-2-(trifluoromethyl)pyrrolidin-1-yl)-3,4-dihydro-1,4-methanopyrido[2,3-b][1,4]diazepine-5(2H)-carboxamide]	B (EC1.5 1-25 μM)	A (Fold activation ≧150%)		
Cc1cc(-c2ccc3c(n2)N(C(=O)Nc2cnncn2)[C@H]2CCN3C2)ccn1 [Example 187, (4S)-7-(2-methylpyridin-4-yl)-N-(1,2,4-triazin-5-yl)-3,4-dihydro-1,4-methanopyrido[2,3-b][1,4]diazepine-5(2H)-carboxamide]	C (EC1.5>25 μM)	B (Fold Activation <150%)		
Cc1cc(-c2ccc3c(n2)N(C(=O)Nc2nccc4nccnc24)[C@H]2CCN3C2)ccn1 [Example 152, (4S)-7-(2-methylpyridin-4-yl)-N-(pyrido[3,4-b]pyrazin-5-yl)-3,4-dihydro-1,4-methanopyrido[2,3-b][1,4]diazepine-5(2H)-carboxamide]	B (EC1.5 1-25 μM)	A (Fold activation ≧150%)		
Cc1cc(-c2ccc3c(n2)N(C(=O)N[C@@H](C)c2ccccn2)[C@H]2CCN3C2)ccn1 [Example 168, (4S)-7-(2-methylpyridin-4-yl)-N-((S)-1-(pyridin-2-yl)ethyl)-3,4-dihydro-1,4-methanopyrido[2,3-b][1,4]diazepine-5(2H)-carboxamide]	C (EC1.5>25 μM)	B (Fold Activation <150%)		
Cc1cc(-c2ccc3c(n2)N(C(=O)NC2CCCC2)[C@H]2CCN3C2)ccn1 [Example 175, (4S)-N-cyclopentyl-7-(2-methylpyridin-4-yl)-3,4-dihydro-1,4-methanopyrido[2,3-b][1,4]diazepine-5(2H)-carboxamide]	B (EC1.5 1-25 μM)	A (Fold activation ≧150%)		
O=C(Nc1ccnc(OC2CCOCC2)n1)N1c2nc(-c3cccc(C(F)(F)F)c3)c(Cl)cc2N2CC[C@H]1C2 [Example 55, (4S)-8-chloro-N-(2-((tetrahydro-2H-pyran-4-yl)oxy)pyrimidin-4-yl)-7-(3-(trifluoromethyl)phenyl)-3,4-dihydro-1,4-methanopyrido[2,3-b][1,4]diazepine-5(2H)-carboxamide]	B (EC1.5 1-25 μM)	A (Fold activation ≧150%)		
O=C(Nc1cnccn1)N1c2nc(-c3ccc(OC(F)F)nc3)ccc2N2CC[C@H]1C2 [Example 226, (4S)-7-(6-(difluoromethoxy)pyridin-3-yl)-N-(pyrazin-2-yl)-3,4-dihydro-1,4-methanopyrido[2,3-b][1,4]diazepine-5(2H)-carboxamide]			B (EC1.5 1-25 μM)	A (Fold activation ≧150%)
Cc1cc(-c2nc3c(cc2C#N)N2CC[C@@H](C2)N3C(=O)Nc2ccccn2)ccn1 [Example 92, (4S)-8-cyano-7-(2-methylpyridin-4-yl)-N-(pyridin-2-yl)-3,4-dihydro-1,4-methanopyrido[2,3-b][1,4]diazepine-5(2H)-carboxamide]	B (EC1.5 1-25 μM)	A (Fold activation ≧150%)		
CCc1cncc(NC(=O)N2c3nc(-c4ccnc(C)c4)ccc3N3CC[C@H]2C3)n1 [Example 122, (4S)-N-(6-ethylpyrazin-2-yl)-7-(2-methylpyridin-4-yl)-3,4-dihydro-1,4-methanopyrido[2,3-b][1,4]diazepine-5(2H)-carboxamide]	A (EC1.5<1 μM)	A (Fold activation ≧150%)		
